# Data published in US8609852B2, “Thiazolyl mGluR5 antagonists and methods for their use” (Merck Sharp & Dohme Corp., priority 2004, dated 2013).
# Tests used:
# hmGluR5a receptor = hmGluR5a receptor (Homo sapiens (Human), UniProt P41594); experiment: Calcium Flux Assay; format: cell-based; conditions: hmGluR5a/L38-20 cells, glutamate-evoked [Ca2+]i
# Experimental: The activity of compounds was examined against the hmGluR5a receptor stably expressed in mouse fibroblast Ltk− cells (the hmGluR5a/L38-20 cell line). See generally Daggett et al., Neuropharmacology 34:871-886 (1995). Receptor activity was detected by changes in intracellular calcium ([Ca^2+]i) measured using the fluorescent calcium-sensitive dye, fura-2. hmGluR5a/L38-20 cells were plated onto 96-well plates, and loaded with 3 µM fura-2 for 1 h. Unincorporated dye was washed from the cells, and the cell plate was transferred to a custom-built 96-channel fluorimeter (SIBIA-SAIC, La Jolla, Calif.) which is integrated into a fully automated plate handling and liquid delivery system. Cells were excited at 350 and 385 nm with a xenon source combined with optical filters. Emitted light was collected from the sample through a dichroic mirror and a 510 nm interference filter and directed into a cooled CCD camera (Princeton Instruments). Image pairs were captured approximately every 1 s, and ratio images were generated after background subtraction. After a basal reading of 20 s, an EC80 concentration of glutamate ([…]) was added to the well, and the response evaluated for another 60 s. The glutamate-evoked increase in [Ca^2+]i in the presence of the screening compound was compared to the response of glutamate alone (the positive control).
# [1] = target: metabotropic glutamate receptor subtype 5 (Rattus norvegicus (Rat), UniProt P31424); experiment: [3H]-mGluR5 Antagonist Binding to Rodent Brain Membranes
# metabotropic glutamate receptor subtype 5, sequence (P31424 21-1203): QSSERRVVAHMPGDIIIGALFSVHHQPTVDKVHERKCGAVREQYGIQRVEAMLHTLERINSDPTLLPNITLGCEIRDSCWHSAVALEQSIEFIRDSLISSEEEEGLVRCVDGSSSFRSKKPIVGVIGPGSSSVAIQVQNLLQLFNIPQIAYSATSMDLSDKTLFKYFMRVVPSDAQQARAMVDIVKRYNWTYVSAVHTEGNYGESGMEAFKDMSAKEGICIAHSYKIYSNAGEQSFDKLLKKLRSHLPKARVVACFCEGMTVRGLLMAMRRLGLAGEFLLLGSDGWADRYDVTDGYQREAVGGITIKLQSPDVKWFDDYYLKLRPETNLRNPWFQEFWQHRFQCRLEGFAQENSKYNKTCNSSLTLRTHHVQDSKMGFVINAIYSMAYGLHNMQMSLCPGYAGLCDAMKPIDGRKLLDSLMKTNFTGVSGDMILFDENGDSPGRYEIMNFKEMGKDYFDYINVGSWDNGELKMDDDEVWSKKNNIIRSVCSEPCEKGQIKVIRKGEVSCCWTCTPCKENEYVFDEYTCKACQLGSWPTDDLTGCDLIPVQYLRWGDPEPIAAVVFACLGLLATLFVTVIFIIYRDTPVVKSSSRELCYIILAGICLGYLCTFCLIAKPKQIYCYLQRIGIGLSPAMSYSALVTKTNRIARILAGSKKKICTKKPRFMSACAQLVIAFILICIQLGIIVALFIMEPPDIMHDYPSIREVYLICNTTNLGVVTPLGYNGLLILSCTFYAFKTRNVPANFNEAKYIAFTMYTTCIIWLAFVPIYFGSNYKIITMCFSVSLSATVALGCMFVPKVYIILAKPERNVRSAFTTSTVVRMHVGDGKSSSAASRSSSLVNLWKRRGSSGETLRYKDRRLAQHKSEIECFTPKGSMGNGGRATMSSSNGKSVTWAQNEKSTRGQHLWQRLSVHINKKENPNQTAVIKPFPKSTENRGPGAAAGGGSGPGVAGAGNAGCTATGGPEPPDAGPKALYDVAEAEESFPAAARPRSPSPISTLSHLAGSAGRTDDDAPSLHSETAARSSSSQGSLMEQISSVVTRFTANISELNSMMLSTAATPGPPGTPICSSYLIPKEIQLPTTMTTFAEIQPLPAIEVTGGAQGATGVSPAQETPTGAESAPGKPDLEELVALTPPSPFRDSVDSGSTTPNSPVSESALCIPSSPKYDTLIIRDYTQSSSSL
# Experimental: In accordance with Anderson J J, Rao S P, Rowe B, Giracello D R, Holtz G, Chapman D F, Tehrani L, Bradbury M J, Cosford N D, Varney M A, [^3H]Methoxymethyl-3-[(2-methyl-1,3-thiazol-4-yl)ethynyl]pyridine binding to metabotropic glutamate receptor subtype 5 in rodent brain: in vitro and in vivo characterization. J Pharmacol Exp Ther. 2002 December; 303 (3):1044-51, membranes were prepared (as described in Ransom R W and Stec N L (1988) Cooperative modulation of [^3H]MK-801 binding to the N-methyl-D-aspartate receptor-ion channel complex by L-glutamate, glycine, and polyamines. J Neurochem 51:830-836) using whole rat brain, or mGlu5^+/+ or mGlu5^−/− whole mouse brain.
# Binding assays were performed as described in Schaffhauser H, Richards J G, Cartmell J, Chaboz S, Kemp J A, Klingelschmidt A, Messer J, Stadler H, Woltering T and Mutel V (1998) In vitro binding characteristics of a new selective group II metabotropic glutamate receptor radioligand, [^3H]LY354740, in rat brain. Mol Pharmacol 53:228-233) at room temperature with slight modifications. Briefly, membranes were thawed and washed once with assay buffer (50 mM HEPES, 2 mM MgCl2, pH 7.4), followed by centrifugation at 40,000×g for 20 min. The pellet was resuspended in assay buffer and briefly homogenized with a Polytron.
# For protein linearity experiments, increasing concentrations of membrane protein were added to 96-well plates in triplicate and binding was initiated by addition of 20 nM [^3H]methoxymethyl-3-[(2-methyl-1,3-thiazol-4-yl)ethynyl]pyridine. The assay was incubated for 2 h and non-specific binding was determined using 10 μM MPEP. The binding was terminated by rapid filtration through glass-fiber filters (Unifilter-96 GF/B plate, Packard) using a 96-well plate Brandel cell harvester. Following addition of scintillant, the radioactivity was determined by liquid scintillation spectrometry. Protein measurements were performed by BioRad-DC Protein assay using bovine serum albumin as the standard.
# Saturation binding experiments were performed in triplicate with increasing concentrations of [^3H]methoxymethyl-3-[(2-methyl-1,3-thiazol-4-yl)ethynyl]pyridine (1 pM to 100 nM). The time course of association was measured by the addition of 10 nM [^3H]methoxymethyl-3-[(2-methyl-1,3-thiazol-4-yl)ethynyl]pyridine to the membranes at different time points (0-240 min), followed by filtration. Dissociation was measured by the addition of 100 μM unlabeled methoxymethyl-3-[(2-methyl-1,3-thiazol-4-yl)ethynyl]pyridine at different time points to membranes previously incubated for 3 h with 10 nM [^3H]methoxymethyl-3-[(2-methyl-1,3-thiazol-4-yl)ethynyl]pyridine. For competition experiments, 100 μg membrane protein and 10 nM [^3H]methoxymethyl-3-[(2-methyl-1,3-thiazol-4-yl)ethynyl]pyridine was added to wells containing increasing concentration of the test compound in duplicate (methoxymethyl-3-[(2-methyl-1,3-thiazol-4-yl)ethynyl]pyridine or MPEP). [^3H]-3-Methoxy-5-(pyridin-2-ylethynyl)pyridine may also be used as the radioligand in the procedure described above. (See, Cosford, N. D. P.; Roppe, J.; Tehrani, L.; Seiders, T. J.; Schweiger, E. J. et al. [3H]-Methoxymethyl-MTEP and [3H]-methoxy-PEPy): Potent and selective radioligands for the Metabotropic Glutamate Subtype 5 (mGlu5) Receptor. Bioorg. Med. Chem. Lett. 2003, 13, 351-354.)
# hmGluR5a receptor, sequence (P41594 other isoform, or with tags, fused parts or gaps): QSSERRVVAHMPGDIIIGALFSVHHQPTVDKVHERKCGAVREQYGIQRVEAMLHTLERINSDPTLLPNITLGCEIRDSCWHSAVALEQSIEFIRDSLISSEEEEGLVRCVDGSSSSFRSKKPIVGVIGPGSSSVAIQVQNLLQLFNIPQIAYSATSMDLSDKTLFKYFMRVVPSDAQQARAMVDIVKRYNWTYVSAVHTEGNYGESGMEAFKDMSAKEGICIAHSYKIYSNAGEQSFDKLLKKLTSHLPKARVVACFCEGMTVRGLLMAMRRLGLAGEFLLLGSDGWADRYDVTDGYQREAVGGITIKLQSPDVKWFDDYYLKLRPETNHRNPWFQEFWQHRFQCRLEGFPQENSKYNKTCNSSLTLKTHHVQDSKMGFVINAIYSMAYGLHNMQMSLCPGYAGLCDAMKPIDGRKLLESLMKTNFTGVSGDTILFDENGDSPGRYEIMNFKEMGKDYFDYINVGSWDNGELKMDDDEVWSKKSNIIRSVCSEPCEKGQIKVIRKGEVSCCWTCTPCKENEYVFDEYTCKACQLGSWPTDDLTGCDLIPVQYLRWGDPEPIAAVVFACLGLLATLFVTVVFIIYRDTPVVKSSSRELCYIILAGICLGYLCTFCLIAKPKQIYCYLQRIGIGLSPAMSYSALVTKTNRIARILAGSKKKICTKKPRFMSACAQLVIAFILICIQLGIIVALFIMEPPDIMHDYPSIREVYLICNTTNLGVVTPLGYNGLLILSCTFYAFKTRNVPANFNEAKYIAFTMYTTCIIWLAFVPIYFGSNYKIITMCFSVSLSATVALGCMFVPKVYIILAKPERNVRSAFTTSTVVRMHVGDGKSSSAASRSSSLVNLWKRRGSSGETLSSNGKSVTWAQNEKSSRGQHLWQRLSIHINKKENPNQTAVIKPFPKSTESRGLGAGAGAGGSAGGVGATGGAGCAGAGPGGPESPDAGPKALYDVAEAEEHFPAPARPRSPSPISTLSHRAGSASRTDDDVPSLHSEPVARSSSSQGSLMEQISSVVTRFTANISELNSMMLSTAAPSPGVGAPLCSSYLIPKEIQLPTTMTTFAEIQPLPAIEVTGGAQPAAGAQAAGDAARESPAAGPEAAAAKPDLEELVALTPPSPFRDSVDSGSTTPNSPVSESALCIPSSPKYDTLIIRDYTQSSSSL
Compound,IC50 (hmGluR5a receptor),Ki [1]
Cc1nc(C#Cc2ccc(-c3cccc4ncccc34)nc2)cs1 [Example 35],17 nM,5 nM
Cc1nc(C#Cc2ccc(-c3c(C)cccc3C)nc2)cs1 [Example 36],14 nM,3 nM
COc1ccc(C#N)cc1-c1ccc(C#Cc2csc(C)n2)cn1 [Example 37],14 nM,10 nM
Cc1ccc(C)c(-c2ccc(C#Cc3csc(C)n3)cn2)c1 [Example 38],13 nM,8 nM
Cc1nc(C#Cc2ccc(-n3ccc4ccccc43)nc2)cs1 [Example 39],13 nM,4 nM
Cc1nc(C#Cc2ccc(N3CCSCC3)nc2)cs1 [Example 40],12 nM,9 nM
Cc1nc(C#Cc2cncc(Nc3cccnc3)c2)cs1 [Example 41],11 nM,5 nM
Cc1nc(C#Cc2ccc(NC3CCC3)nc2)cs1 [Example 42],11 nM,17 nM
Cc1nc(C#Cc2cncc(-c3cccc(Cl)c3)c2)cs1 [Example 43],11 nM,0.65 nM
Cc1nc(C#Cc2ccc(-c3ccccc3CO)nc2)cs1 [Example 44],11 nM,2 nM
Cc1nc(C#Cc2ccc(-c3ccc(F)c(F)c3)nc2)cs1 [Example 45],11 nM,7 nM
Cc1nc(C#Cc2ccc(-c3ccc(F)cc3)nc2)cs1 [Example 46],11 nM,2 nM
COc1ccc(C)cc1-c1ccc(C#Cc2csc(C)n2)cn1 [Example 47],11 nM,19 nM
Cc1nc(C#Cc2ccc(-c3cc(C#N)ccc3F)nc2)cs1 [Example 48],9 nM,12.5 nM
Cc1nc(C#Cc2ccc(-c3ccc(F)c(C)c3)nc2)cs1 [Example 49],9 nM,5.5 nM
Cc1nc(C#Cc2ccc(N(C)c3ccccn3)nc2)cs1 [Example 50],9 nM,12 nM
COc1cccc(-c2ccc(C#Cc3csc(C)n3)cn2)c1F [Example 51],8 nM,9 nM
Cc1cccc(-c2ccc(C#Cc3csc(C)n3)cn2)c1 [Example 52],8 nM,2 nM
Cc1nc(C#Cc2ccc(N3C4CCC3CC4)nc2)cs1 [Example 53],8 nM,8 nM
Cc1ccc(F)c(-c2ccc(C#Cc3csc(C)n3)cn2)c1 [Example 54],8 nM,1.5 nM

Compound,IC50 (hmGluR5a receptor),Ki [1]
CCc1ccccc1-c1ccc(C#Cc2csc(C)n2)cn1 [Example 55],7 nM,4 nM
Cc1nc(C#Cc2ccc(-c3cccc(CO)c3)nc2)cs1 [Example 56],7 nM,13 nM
Cc1nc(C#Cc2ccc(N3CCCCCC3)nc2)cs1 [Example 57],7 nM,7.5 nM
Cc1nc(C#Cc2ccc(N3C(C)CCC3C)nc2)cs1 (centres unmarked) [Example 58],7 nM,1.5 nM
CCC(C)(C)Nc1ccc(C#Cc2csc(C)n2)cn1 [Example 59],6 nM,4 nM
Cc1nc(C#Cc2ccc(-c3cccc(Cl)c3C)nc2)cs1 [Example 60],6 nM,1.5 nM
Cc1nc(C#Cc2ccc(N3CCCC(F)C3)nc2)cs1 (centres unmarked) [Example 61],6 nM,12 nM
CC[C@H](C)Nc1ccc(C#Cc2csc(C)n2)cn1 [Example 62],6 nM,11 nM
Cc1nc(C#Cc2ccc(-c3cccc(C)c3C)nc2)cs1 [Example 63],6 nM,4 nM
CSc1ccccc1-c1ccc(C#Cc2csc(C)n2)cn1 [Example 64],6 nM,0.8 nM
Cc1nc(C#Cc2cncc(-c3ccc(CO)cc3)c2)cs1 [Example 65],6 nM,8 nM
CCC(CC)Nc1ccc(C#Cc2csc(C)n2)cn1 [Example 66],5 nM,9 nM
Cc1nc(C#Cc2cncc(CCc3ccccc3)c2)cs1 [Example 67],5 nM,7 nM
CC[C@@H](C)Nc1ccc(C#Cc2csc(C)n2)cn1 [Example 68],5 nM,7 nM
Cc1nc(C#Cc2ccc(N3CCCC3)nc2)cs1 [Example 69],5 nM,14 nM
Cc1nc(C#Cc2ccc(-c3cccc(C#N)c3)nc2)cs1 [Example 70],5 nM,5 nM
COCc1ccccc1-c1ccc(C#Cc2csc(C)n2)cn1 [Example 71],5 nM,4.5 nM
Cc1nc(C#Cc2ccc(NC(C)(C)C)nc2)cs1 [Example 72],5 nM,7 nM
Cc1nc(C#Cc2ccc(C3CC4CCC3C4)nc2)cs1 (centres unmarked) [Example 73],4 nM,2 nM
Cc1nc(C#Cc2ccc(N3CC4CCC3C4)nc2)cs1 (centres unmarked) [Example 74],4 nM,7.5 nM

Compound,IC50 (hmGluR5a receptor),Ki [1]
Cc1nc(C#Cc2ccc(C3CCCC3)nc2)cs1 [Example 75],4 nM,4 nM
Cc1nc(C#Cc2cncc(C3CC3)c2)cs1 [Example 76],3.5 nM,3 nM
Cc1nc(C#Cc2ccc(-c3cccc(C(F)(F)F)c3)nc2)cs1 [Example 77],3 nM,13 nM
C=Cc1cncc(C#Cc2csc(C)n2)c1 [Example 78],3 nM,1.4 nM
Cc1nc(C#Cc2ccc(Oc3ccccc3)nc2)cs1 [Example 79],3 nM,16 nM
Cc1cncc(C#Cc2csc(C)n2)c1 [Example 80],3 nM,3 nM
Cc1nc(C#Cc2ccc(N3CCC(C)CC3)nc2)cs1 [Example 81],3 nM,6 nM
Cc1nc(C#Cc2cncc(N(C)c3cccnc3)c2)cs1 [Example 82],3 nM,2 nM
CCC(C)Sc1ccc(C#Cc2csc(C)n2)cn1 (centres unmarked) [Example 83],2 nM,12 nM
Cc1nc(C#Cc2cncc(-c3ccccc3CO)c2)cs1 [Example 84],2 nM,7 nM
Cc1nc(C#Cc2cncc(-c3cccc(C#N)c3)c2)cs1 [Example 85],2 nM,1 nM
CCCN(C)c1ccc(C#Cc2csc(C)n2)cn1 [Example 86],2 nM,7 nM
Cc1nc(C#Cc2ccc(N3CCC(F)CC3)nc2)cs1 [Example 88],2 nM,4 nM
CCOc1ccccc1-c1ccc(C#Cc2csc(C)n2)cn1 [Example 89],1.6 nM,2 nM
Cc1nc(C#Cc2cncc(Cl)c2)cs1 [Example 90],1.5 nM,4 nM
Cc1nc(C#Cc2cncc(Oc3cccnc3)c2)cs1 [Example 91],1 nM,1 nM
Cc1nc(C#Cc2cnc(N3CCCC(CO)C3)nc2)cs1 (centres unmarked) [Example 92],12 nM,7 nM
Cc1nc(C#Cc2cnc(N3CCCCCC3)nc2)cs1 [Example 93],11 nM,3 nM
